Reference: ChEMBL document CHEMBL5233251, “Epoxide containing molecules: A good or a bad drug design approach” (Eur J Med Chem, 2020)
pIC50: −log10 of the molar value. Values after ≈ are worked out from the molar mass of the structure shown.

Assays:
[1] = Cytotoxicity against human RPMI-8226/Dox40 cells assessed as inhibition of cell growth incubated for 3 days; assay type: functional, cell-based; details: RPMI-8226, 72 h
NCI-H522 = test: Cytotoxicity against human NCI-H522 cells assessed as inhibition of cell growth incubated for 3 days; assay type: functional, cell-based; details: NCI-H522, 72 h
Hyalomma lusitanicum = test: Anti-insecticidal activity against Hyalomma lusitanicum Koch larvae assessed as inhibition of larval growth; assay type: functional; details: for LC50: Hyalomma lusitanicum, read-out: LD50 (the source's name)
HEp-2 = test: Cytotoxicity against human HEp-2 cells assessed as inhibition of cell growth; assay type: functional; details: read-out: ED50 (the source's name)
Aromatase [2] = target: T1, Aromatase (Homo sapiens, UniProt P11511); test: Inhibition of aromatase in disrupted human MCF-7aro cells using [1beta-3H] androstenedione as substrate incubated for 1 hrs in the presence of NADPH
T1 sequence (P11511 whole entry): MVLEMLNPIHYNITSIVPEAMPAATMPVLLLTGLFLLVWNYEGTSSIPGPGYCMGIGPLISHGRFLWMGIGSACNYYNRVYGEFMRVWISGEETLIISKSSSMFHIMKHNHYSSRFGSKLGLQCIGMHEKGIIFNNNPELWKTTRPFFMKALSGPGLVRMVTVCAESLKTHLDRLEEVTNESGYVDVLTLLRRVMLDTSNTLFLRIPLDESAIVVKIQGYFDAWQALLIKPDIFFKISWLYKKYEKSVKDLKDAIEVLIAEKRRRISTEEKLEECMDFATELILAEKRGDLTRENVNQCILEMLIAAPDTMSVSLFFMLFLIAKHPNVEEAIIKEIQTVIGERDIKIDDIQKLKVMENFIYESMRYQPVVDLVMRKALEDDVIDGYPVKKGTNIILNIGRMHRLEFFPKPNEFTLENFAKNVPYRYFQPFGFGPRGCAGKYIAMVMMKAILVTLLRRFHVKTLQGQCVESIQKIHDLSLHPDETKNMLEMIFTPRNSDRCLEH

Aromatase [3] = target: T1, Aromatase; test: Inhibition of aromatase in human MCF-7aro cells using [1beta-3H] androstenedione as substrate incubated for 1 hrs; assay type: cell-based
Aromatase [4] = target: T1, Aromatase; test: Inhibition of aromatase in human MCF-7aro cells using [1beta-3H] androstenedione as substrate at 10 uM incubated for 1 hrs relative to control; assay type: cell-based
A2780 [5] = test: Cytotoxicity against human A2780 cells assessed as inhibition of cell growth incubated for 96 hrs by SRB assay; assay type: toxicity, cell-based; details: A2780, 96 h
MG-63 [6] = test: Antiproliferative activity against human MG-63 cells assessed as inhibition of cell growth by MTT assay; assay type: functional, cell-based
MG-63 [7] = test: Antiproliferative activity against human MG-63 cells assessed as reduction in cell viability by SRB assay; assay type: functional, cell-based
OVCAR-8 = test: Antiproliferative activity against human OVCAR-8 cells assessed as inhibition of cell growth incubated for 72 hrs by MTT assay; assay type: functional, cell-based; details: OVCAR-8, 72 h
HL-60 = test: Antiproliferative activity against human HL-60 cells assessed as inhibition of cell growth incubated for 72 hrs by MTT assay; assay type: functional, cell-based; details: HL-60, 72 h
HCT-116 = test: Antiproliferative activity against human HCT-116 cells assessed as inhibition of cell growth incubated for 72 hrs by MTT assay; assay type: functional, cell-based; details: HCT-116, 72 h
Leishmania donovani = test: Antileishmanial activity against Leishmania donovani promastigotes; assay type: functional, organism-based
SF-295 = test: Antiproliferative activity against human SF-295 cells assessed as inhibition of cell growth incubated for 72 hrs by MTT assay; assay type: functional, cell-based; details: SF-295, 72 h
HCT-15 = test: Antiproliferative activity against human HCT-15 cells assessed as reduction in cell viability incubated for 48 hrs by CytoX cell viability assay; assay type: functional, cell-based; details: HCT-15, 48 h
MCF7 [8] = test: Antiproliferative activity against human MCF7 cells assessed as reduction in cell viability incubated for 48 hrs by CytoX cell viability assay; assay type: functional, cell-based; details: MCF7, 48 h
K562 [9] = test: Antiproliferative activity against human K562 cells assessed as reduction in cell viability incubated for 48 hrs by CytoX cell viability assay; assay type: functional, cell-based; details: K562, 48 h
HeLa [10] = test: Antiproliferative activity against human HeLa cells assessed as reduction in cell viability incubated for 48 hrs by CytoX cell viability assay; assay type: functional, cell-based
DU-145 = test: Antiproliferative activity against human DU-145 cells assessed as reduction in cell viability incubated for 48 hrs by CytoX cell viability assay; assay type: functional, cell-based; details: DU-145, 48 h
MDA-MB-231 = test: Cytotoxicity against human MDA-MB-231 cells assessed as inhibition of cell growth incubated for 48 hrs by SRB assay; assay type: functional, cell-based; details: MDA-MB-231, 48 h
NCI-H1299 = test: Antiproliferative activity against human NCI-H1299 cells assessed as inhibition of cell proliferation incubated for 4 days by MTT assay; assay type: functional, cell-based; details: NCI-H1299, 96 h
MCF7 [11] = test: Antiproliferative activity against human MCF7 cells assessed as inhibition of cell proliferation incubated for 4 days by MTT assay; assay type: functional, cell-based; details: MCF7, 96 h
HT-29 = test: Antiproliferative activity against human HT-29 cells assessed as inhibition of cell proliferation incubated for 4 days by MTT assay; assay type: functional, cell-based; details: HT-29, 96 h
Malme-3M = test: Antiproliferative activity against human Malme-3M cells assessed as inhibition of cell proliferation incubated for 4 days by MTT assay; assay type: functional, cell-based; details: 96 h
A2780 [12] = test: Antiproliferative activity against human A2780 cells assessed as inhibition of cell proliferation incubated for 4 days by MTT assay; assay type: functional, cell-based; details: A2780, 96 h
HeLa [13] = test: Antiproliferative activity against human HeLa cells assessed as inhibition of cell proliferation incubated for 4 days by MTT assay; assay type: functional, cell-based; details: 96 h
K562 [14] = test: Antiproliferative activity against human K562/C1000 cells assessed as inhibition of cell proliferation incubated for 4 days by MTT assay; assay type: functional, cell-based; details: K562, 96 h
PC-3 = test: Cytotoxicity against human PC-3 cells assessed as inhibition of cell growth incubated for 48 hrs by SRB assay; assay type: functional, cell-based; details: PC-3, 48 h
MCF7 [15] = test: Cytotoxicity against human MCF7 cells assessed as inhibition of cell growth incubated for 48 hrs by SRB assay; assay type: functional, cell-based; details: MCF7, 48 h
Plasmodium falciparum [16] = test: Antimalarial activity against Sulfadoxine-resistant Plasmodium falciparum W2; assay type: functional, organism-based
Plasmodium falciparum [17] = test: Antimalarial activity against chloroquine-sensitive Plasmodium falciparum D10 incubated for 48 hrs; assay type: functional, organism-based; details: D10, 48 h
Plasmodium falciparum [18] = test: Antimalarial activity against Sulfadoxine-sensitive Plasmodium falciparum FCR3; assay type: functional, organism-based
Plasmodium falciparum [19] = test: Antimalarial activity against Sulfadoxine-sensitive Plasmodium falciparum HB3; assay type: functional, organism-based
Plasmodium falciparum [20] = test: Antimalarial activity against […] incubated for 48 hrs; assay type: functional, organism-based; details: K1, 48 h
Plasmodium falciparum [21] = test: Antimalarial activity against Sulfadoxine-resistant Plasmodium falciparum 3D7; assay type: functional, organism-based
Plasmodium falciparum [22] = test: Antimalarial activity against Sulfadoxine-sensitive Plasmodium falciparum D6; assay type: functional, organism-based

With `C[C@]1([C@H]2Cc3ccc4c(c3O2)-n2cc(C(=O)O)c(=O)c3cc(F)c(N5CC[C@H](N)C5)c(c32)O4)CO1` as the compound, how does the pIC50 [1] read?
Its pIC50 is 7.30.

And the pIC50 (NCI-H522)?
Its pIC50 is 7.15.

Which results are given for `CC(C)=C1C/C=C(\C)CC/C=C(\C)CC1=O`?
LD90 (Hyalomma lusitanicum): 3.13 mg/mL; LC50 (Hyalomma lusitanicum): 1080 µg/mL (≈ 4950 µM)

Which EC50 (HEp-2) does the source give for `C=C1C(=O)O[C@@H]2C[C@@H](C)[C@@H]3C4OC4C(=O)[C@@]3(C)[C@@H](O)[C@H]12` (some centres not stated) here?
The EC50 was 0.11 µg/mL (≈ 0.395 µM).

With `C[C@]12CC[C@H]3[C@@H](CC[C@@]45O[C@@H]4CCC[C@]35C)[C@@H]1CCC2=O` as the compound, how does the pIC50 (Aromatase [2]) read?
Its pIC50 is 5.92.

And the pIC50 (Aromatase [3])?
Its pIC50 is 5.07.

What about the inhibition at 10 µM (Aromatase [4]) of the same compound?
Its inhibition at 10 µM is 52.2%.

With `CC1=CC[C@]23O[C@@]2(C)CC[C@@H]2[C@H](OC(=O)[C@H]2CN2CCNCC2)[C@@H]13` as the compound, how does the pIC50 (A2780 [5]) read?
Its pIC50 is 5.43.

With `C[C@@H]1CC[C@@H]([C@]2(C)CO2)[C@H](OCc2ccccc2)C1` as the compound, how does the pIC50 (MG-63 [6]) read?
The pIC50 was 4.00.

What about the pIC50 (MG-63 [7]) of the same compound?
The pIC50 was 4.00.

Which results are given for `C=C(C)[C@H]1CCC2(C=O)OC2C1` (some centres not stated)?
pIC50 (OVCAR-8): 4.63; pIC50 (HL-60): 5.01; pIC50 (HCT-116): 4.79; IC50 (Leishmania donovani): 64.6 µg/mL (≈ 389 µM); pIC50 (SF-295): 4.66

With `CC(C)=C1C/C=C(\C)CC[C@H]2O[C@@]2(C)CC1=O` as the compound, how does the LD90 (Hyalomma lusitanicum) read?
Its LD90 is 4.1 mg/mL.

And the LC50 (Hyalomma lusitanicum)?
Its LC50 is 2700 µg/mL (≈ 11500 µM).

Which EC50 (HEp-2) does the source give for `CC1C(=O)O[C@@H]2C[C@@H](C)[C@]34O[C@H]3CC(=O)[C@@]4(C)[C@@H](O)[C@H]12` (some centres not stated) here?
Its EC50 is 0.11 µg/mL (≈ 0.392 µM).

With `Cc1cc(=O)c2c(OC[C@@H]3CO3)cc(OC[C@H]3CO3)cc2o1` as the compound, how does the pIC50 (HCT-15) read?
The pIC50 was 4.92.

What about the pIC50 (MCF7 [8]) of the same compound?
Its pIC50 is 4.86.

What about the pIC50 (K562 [9]) of the same compound?
The pIC50 was 5.83.

And the pIC50 (HeLa [10])?
Its pIC50 is 4.96.

What about the pIC50 (DU-145) of the same compound?
The pIC50 was 4.69.

With `Cc1cc(=O)c2c(OC[C@@H]3CO3)cc(OC[C@@H]3CO3)cc2o1` as the compound, how does the pIC50 (HCT-15) read?
The pIC50 was 4.40.

And the pIC50 (MCF7 [8])?
The pIC50 was 4.34.

What about the pIC50 (K562 [9]) of the same compound?
The pIC50 was 4.71.

What about the pIC50 (HeLa [10]) of the same compound?
The pIC50 was 4.66.

And the pIC50 (DU-145)?
The pIC50 was 4.61.

With `C=C1C(=O)O[C@@H]2C[C@@H](C)[C@]34O[C@H]3CC(=O)[C@@]4(C)[C@@H](O)[C@H]12` as the compound, how does the EC50 (HEp-2) read?
The EC50 was 0.11 µg/mL (≈ 0.395 µM).

With `C[C@@H]1OC(=O)C[C@H]2[C@@H]3CC[C@]45O[C@H]4C(=O)CC[C@]5(C)[C@H]3CC[C@]12C` as the compound, how does the pIC50 (MDA-MB-231) read?
The pIC50 was 5.44.

What does the source list for `CC1=C2CC3(OC3(C)C)C(=O)C[C@@]2(C)CCC1` (some centres not stated)?
LD90 (Hyalomma lusitanicum): 6.33 mg/mL; LC50 (Hyalomma lusitanicum): 4140 µg/mL (≈ 17700 µM)

With `Cc1cc(=O)c2c(O)cc(OC[C@H]3CO3)cc2o1` as the compound, how does the pIC50 (HCT-15) read?
Its pIC50 is 4.57.

And the pIC50 (MCF7 [8])?
The pIC50 was 4.64.

What about the pIC50 (K562 [9]) of the same compound?
The pIC50 was 5.01.

And the pIC50 (HeLa [10])?
The pIC50 was 4.78.

And the pIC50 (DU-145)?
Its pIC50 is 4.82.

With `CC1(C)NC(=O)[C@@H](CCCCCC(=O)[C@@H]2CO2)NC(=O)CC2CCCN2C(=O)[C@@H](Cc2ccccc2)NC1=O` (some centres not stated) as the compound, how does the pIC50 (NCI-H1299) read?
The pIC50 was 8.40.

And the pIC50 (MCF7 [11])?
Its pIC50 is 8.28.

And the pIC50 (HT-29)?
Its pIC50 is 8.37.

What about the pIC50 (Malme-3M) of the same compound?
Its pIC50 is 7.35.

And the pIC50 (A2780 [12])?
Its pIC50 is 9.44.

And the pIC50 (HeLa [13])?
Its pIC50 is 7.85.

What about the pIC50 (K562 [14]) of the same compound?
Its pIC50 is 9.12.

Which LD90 (Hyalomma lusitanicum) does the source give for `CC(C)=C1C[C@H]2O[C@@]2(C)CC/C=C(\C)CC1=O` here?
The LD90 was 3.45 mg/mL.

And the LC50 (Hyalomma lusitanicum)?
Its LC50 is 1470 µg/mL (≈ 6270 µM).

What does the source list for `C[C@]12CC[C@H]3[C@@H]([C@@H]4O[C@@H]4C4=CC(=O)C=C[C@@]43C)[C@@H]1CC(=O)OC2`?
pIC50 (MDA-MB-231): < 4.00; pIC50 (PC-3): < 4.00; pIC50 (MCF7 [15]): < 4.00

With `CC(C)[C@@]12CC[C@@](C)(OO1)[C@@H]1O[C@@H]12` as the compound, how does the pIC50 (Plasmodium falciparum [16]) read?
The pIC50 was < 5.00.

And the pIC50 (Plasmodium falciparum [17])?
The pIC50 was 7.10.

What about the pIC50 (Plasmodium falciparum [18]) of the same compound?
The pIC50 was 8.00.

And the pIC50 (Plasmodium falciparum [19])?
The pIC50 was 8.00.

And the pIC50 (Plasmodium falciparum [20])?
Its pIC50 is 7.10.

What about the pIC50 (Plasmodium falciparum [21]) of the same compound?
Its pIC50 is < 5.00.

What about the pIC50 (Plasmodium falciparum [22]) of the same compound?
Its pIC50 is 8.00.
